The text below walks through data of ChEMBL document CHEMBL1201862, “PubChem BioAssay data set” (2004).

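96-well plates; 48 h exposure; 5 concentrations. Endpoints by linear interpolation between flanking doses. Not reached: highest tested concentration assigned. At the GI50, growth is halved.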 Calls of active or inactive are those of the source. No stated cut-off is given here; in the data, active = GI50 up to about 1.1 µM and inactive = higher.

Test systems include SR; NCI-H23; HT-29; U-251; M14; A498; COLO 205; UACC-257; SK-MEL-2; SK-OV-3; MDA-MB-435; SK-MEL-5; EKVX; SF-295; HOP-62; HOP-92; Malme-3M; DU-145; IGROV-1; HCT-116.
Holding throughout (assay): NCI-60 cell line screen, 48 h

For `Cc1c2c(c(C)c3c4c(oc13)CCCC4)C=NCC2`, the GI50 in the test with SR was 6.58 µM (inactive); in the test on NCI-H23, 16.2 µM (inactive); in the test with HT-29, 6.64 µM (inactive); with U-251 it was 13.1 µM (inactive); in the test with M14, 20.2 µM (inactive); with A498, 17 µM (inactive). Also, the GI50 with COLO 205 is 19.5 µM (inactive); in the test on UACC-257, 14.7 µM (inactive); with SK-MEL-2, 17.1 µM (inactive); in the test with SK-OV-3 it was 20.7 µM (inactive); in the test on MDA-MB-435 it was 14.4 µM (inactive); with SK-MEL-5, 14.9 µM (inactive). Besides, the GI50 in the test with EKVX was 12.7 µM (inactive); in the test on SF-295, 16.1 µM (inactive); with HOP-62, 32.2 µM (inactive); in the test on HOP-92 it was 11.5 µM (inactive); in the test on Malme-3M, 16 µM (inactive); in the test on DU-145 it was 15 µM (inactive). Further, the GI50 with IGROV-1 is 13.6 µM (inactive); in the test on HCT-116, 14.9 µM (inactive).

With `O=S(=O)(O)c1ccc(Nc2ccnc3cc(Cl)ccc23)cc1`, the GI50 in the test on SR, in the test on NCI-H23, in the test on HT-29, in the test with U-251, in the test on M14 and in the test on A498 was > 100 µM (inactive) throughout. Further, the GI50 in the test with COLO 205, with UACC-257, in the test on SK-MEL-2, with SK-OV-3, in the test on MDA-MB-435 and in the test with SK-MEL-5 was > 100 µM (inactive) in each case. Moreover, the GI50 in the test with EKVX, in the test with SF-295, in the test with HOP-62, with HOP-92, with Malme-3M and with DU-145 was > 100 µM (inactive) in each case. The GI50 in the test on IGROV-1 and with HCT-116 was > 100 µM (inactive) in each case.

As to `O=C(O)C(CO)NC(=O)C1C(C(=O)O)C(c2ccccc2[N+](=O)[O-])C=C(c2ccco2)N1c1ccncc1` (stereo not given), the GI50 in the test with SR was 0.9 µM (active); with NCI-H23, 7.16 µM (inactive); with HT-29 it was 1.81 µM (inactive); with U-251, 2.34 µM (inactive); in the test with M14, 4.32 µM (inactive); in the test with A498, 11.8 µM (inactive). For the same compound, the GI50 in the test on COLO 205 is 4.62 µM (inactive); in the test with UACC-257 it was 3.61 µM (inactive); with SK-MEL-2, 16.3 µM (inactive); in the test with SK-OV-3, 15.1 µM (inactive); in the test on MDA-MB-435 it was 5.16 µM (inactive); in the test with SK-MEL-5, 4.49 µM (inactive). The GI50 in the test on EKVX was 14.9 µM (inactive); with SF-295, 7.05 µM (inactive); in the test on HOP-62 it was 12.2 µM (inactive); with HOP-92 it was 12.1 µM (inactive); with Malme-3M it was 13.4 µM (inactive); in the test on DU-145, 11.4 µM (inactive). Also, the GI50 is 2.04 µM (inactive) with IGROV-1 and 1.67 µM (inactive) in the test on HCT-116.
